For seven compounds, EC50 results are on record in ChEMBL document CHEMBL1153952, “Selective, potent PPARgamma agonists with cyclopentenone core structure” (Bioorg Med Chem Lett, 2009).

pEC50: −log10 of the molar value. A value given as a limit tells only on which side of the number the result lay.

Experiment [1] addresses T1, Peroxisome proliferator-activated receptor delta (Homo sapiens, UniProt Q03181).
T1 sequence (Q03181 whole entry): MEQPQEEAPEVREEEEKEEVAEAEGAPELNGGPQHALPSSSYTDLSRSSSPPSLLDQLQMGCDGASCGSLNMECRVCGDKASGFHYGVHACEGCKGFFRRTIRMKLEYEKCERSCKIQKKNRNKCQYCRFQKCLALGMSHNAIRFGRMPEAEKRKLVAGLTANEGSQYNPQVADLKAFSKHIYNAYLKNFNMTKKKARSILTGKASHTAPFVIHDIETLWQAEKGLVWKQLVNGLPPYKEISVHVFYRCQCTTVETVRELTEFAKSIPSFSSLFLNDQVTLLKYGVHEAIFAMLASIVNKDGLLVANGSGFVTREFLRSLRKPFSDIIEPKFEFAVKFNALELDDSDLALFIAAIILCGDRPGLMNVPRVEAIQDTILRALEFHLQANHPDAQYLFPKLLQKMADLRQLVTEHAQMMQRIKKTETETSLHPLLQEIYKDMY

Experiment [2] addresses T2, Peroxisome proliferator-activated receptor alpha (Homo sapiens, UniProt Q07869).
T2 sequence (Q07869 whole entry): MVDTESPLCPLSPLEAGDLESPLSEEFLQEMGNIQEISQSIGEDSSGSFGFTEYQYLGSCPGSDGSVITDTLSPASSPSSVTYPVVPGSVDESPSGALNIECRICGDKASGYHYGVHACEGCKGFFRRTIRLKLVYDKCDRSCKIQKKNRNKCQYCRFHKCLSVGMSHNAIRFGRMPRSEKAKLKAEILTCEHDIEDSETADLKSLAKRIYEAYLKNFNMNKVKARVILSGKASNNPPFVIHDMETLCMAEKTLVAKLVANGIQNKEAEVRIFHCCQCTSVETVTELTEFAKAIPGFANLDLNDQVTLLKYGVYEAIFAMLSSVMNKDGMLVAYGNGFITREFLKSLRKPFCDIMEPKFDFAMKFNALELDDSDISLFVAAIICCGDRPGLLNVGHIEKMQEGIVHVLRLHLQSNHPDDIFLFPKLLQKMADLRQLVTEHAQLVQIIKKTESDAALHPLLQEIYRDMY
As to the kind of experiment: Agonist activity at PPARalpha ligand binding domain expressed in human HeLa cells co-transfected with Gal4-DBD assessed as transcriptional activation by Gal4 response element-driven luciferase reporter gene assay. The class given is cell-based. A general note: A reporter such as luciferase makes a cellular process visible.

In experiment [3] the target is T3, Peroxisome proliferator-activated receptor gamma (Homo sapiens, UniProt P37231).
T3 sequence (P37231 whole entry): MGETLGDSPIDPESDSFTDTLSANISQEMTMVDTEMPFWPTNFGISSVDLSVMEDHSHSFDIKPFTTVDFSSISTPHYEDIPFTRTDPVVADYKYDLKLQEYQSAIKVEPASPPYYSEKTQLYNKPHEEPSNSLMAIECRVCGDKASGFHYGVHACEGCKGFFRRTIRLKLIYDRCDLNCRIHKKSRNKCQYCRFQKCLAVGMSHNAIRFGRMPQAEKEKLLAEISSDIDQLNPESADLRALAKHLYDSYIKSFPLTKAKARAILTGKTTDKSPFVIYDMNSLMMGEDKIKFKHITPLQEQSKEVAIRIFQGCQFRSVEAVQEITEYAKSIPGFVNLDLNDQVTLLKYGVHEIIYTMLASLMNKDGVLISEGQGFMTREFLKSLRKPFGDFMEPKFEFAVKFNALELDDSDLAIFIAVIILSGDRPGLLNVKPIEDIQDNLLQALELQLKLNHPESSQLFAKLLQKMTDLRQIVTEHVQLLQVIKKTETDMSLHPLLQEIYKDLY
The class given is cell-based, HeLa.

The pEC50 is −log10 of the EC50, conventionally taken in molar units. In the case of `CCCCCCCN(CCc1ccc(SC(C)(C)C(=O)O)cc1)C(=O)Nc1ccc(F)cc1F` [GSK-9578], the pEC50 in experiment [1] is 6.00.

As to `CCCCCCC[C@H]1C(=O)C=C(I)[C@@H]1OCCCCCC(=O)O` (relative stereo), the results for the pEC50 in experiment [1], in experiment [2] and in experiment [3] were 6.30, 6.00 and 7.52, respectively.

Consider `CCCCCCC#CC1=CC(=O)[C@H](CCCCCCC)[C@@H]1OCCCCCC(=O)O` (relative stereo), for which the figures for the pEC50 in experiment [1], in experiment [2] and in experiment [3] were under 5.00, 6.30 and 5.40, respectively.

As for `CCCCCCC[C@H]1C(=O)C=C(I)[C@H]1OCCCCCC(=O)O` (relative stereo), the results for the pEC50 in experiment [1], in experiment [2] and in experiment [3] were under 5.00, under 5.00 and 7.22, respectively.

Turning to `CCCCCCC[C@H]1C(=O)C=C[C@@H]1OCCCCCC(=O)O`, the pEC50 is under 5.00 in experiment [1], 6.00 in experiment [2] and 5.40 in experiment [3].

Regarding `CCCCCCC[C@H]1C(=O)C=C[C@H]1OCCCCCC(=O)O`, the pEC50 in experiment [1] and in experiment [3] was 5.70 each time.

On to `CCCCCCC#CC1=CC(=O)[C@H](CCCCCCC)[C@H]1OCCCCCC(=O)O` (relative stereo), for which the negative logarithm of the EC50 (pEC50) was 5.70 in experiment [1], 6.30 in experiment [2] and 5.10 in experiment [3].
